Each structure is given as a SMILES string.

The inhibition is the change of the read-out against control, counted positive when it falls. Lower therefore signals little suppression.

One series addresses BSEP (Homo sapiens (Human), UniProt O95342). The series can be described thus: BSEP inhibition: biliary clearance of Taurocolic Acid in sandwich-cultured human hepatocytes. It counts as in vitro ADME. The following applies: sandwich-cultured cryopreserved human hepatocytes, probe Taurocolic Acid (TCA); 50 μM test compound, 10 μM TCA, human hepatocytes sandwich configuration. As to the method:
BSEP inhibition was evaluated using human hepatocytes cultured between two layer of collagen (sandwich configuration). In this culture condition, hepatocytes express relevant transporters including BSEP and retain the bile canalicular structure. An inhibition of the biliary clearance of Taurocolic Acid (TCA), a known BSEP substrate, was used to assess BSEP interaction.
BSEP inhibition was evaluated using cryopreserved human hepatocytes (Plateable Cryopreserved Human Hepatocytes, BIOIVT) cultured for 5 day between two layer of collagen (sandwich configuration). In this culture condition, hepatocytes express relevant transporters including BSEP and retain the bile canalicular structure.
On day 5 of culture, hepatic cells are ready for the assay and the biliary clearance of Taurocolic Acid (TCA), a known BSEP substrate, can be estimated in presence and in absence of compound of interest.
The sample solution was prepared dissolving test compound and TCA in DMSO and then diluted in the Assay Buffer: Hank's Balance Salt Solution (HBSS+) warmed at 37° C. before use, to give the 10 μM TCA working solution with and without 50 μM of test compound. Hepatocytes were incubated for 10 minutes with these working solutions allowing TCA to be excreted into bile. At the end of incubation, the working solution was aspirated, and the content of the bile was collected through the addition of HBSS Modified without Ca2+/Mg2+(HBSS−). The presence of Ca2+ in the buffer is required to maintain the integrity of the tight junctions, the diffusional barrier between the canalicular lumen and extracellular space. Instead, incubation of cells in Ca2+-free buffer disrupts the tight junctions and opens the bile canalicular structures, allowing the bile content to be released and collect for HPLC-MS/MS analysis.
The in vitro biliary clearance of TCA incubated with and without test compounds is calculated according to the following formula:
where • Acc. Bile=(TCA amount in HBSS (−) buffer samples (pmol/mg protein)*Volume of each samples (mL))/Protein content per well (mg) • AUC=Incubation time (min)*T0 Concentration. T0 concentration is the initial TCA concentration in the medium.
The inhibition of BSEP was calculated as percentage of inhibition of TCA biliary clearance in presence of compound of interest, according to the following formula: BSEP inhibition %=100−(TCA ClBil with test compound*100)
TCA ClBil without test compound.

A short description of series [1]: Permeability on Caco-2 cells monolayers. The following applies: human, with Elacridar 10 µM (PgP inhibitor), Papp A>B with PgP inhibitor Elacridar, 10 μM compound, read-out: Passive Permeability. Format: in vitro ADME. On the procedure: Even more advantageously, the compounds of formula (I) of the present invention are also endowed with a good permeability profile that, in its turn, can ensure a suitable bioavailability for an oral administration. The permeability was assessed in human Caco 2 cell line, an in vitro model that mimic human gastrointestinal barrier and so useful to predic oral absorption.
The permeability of the compounds of the present invention was evaluated performing the assay on Caco-2 cells monolayers (human colon adenocarcinoma immortalized cell) by measuring the transport of compound (absorption and secretion) in both directions: apical to basolateral direction (A>B) and basolateral to apical (B>A) with and without PgP inhibitor (Elacridar).
The cells, purched from ReadyCell in 96 well format (Cod. KRECE-CCR50), were cultured by the supplier for 21 day on transwell supports in DMEM 1 g/L glucose culture medium supplemented with Fetal Bovin Sierum (10%), Glutamine 200 mM (1%) and Penicillin 10000 U/ml-10 mg/ml Streptomycin (1%).
On day 21 of colture, cell monolayers integrity was verified by measuring the trans-epithelial electric resistance (TEER) using the EVOM equipment (Endohm, WPI, Germany) and studying the apparent permeability (Papp) of reference compounds (Sulpiride and Metoprolol). Furthermore, as a control, the Talinolol 10 uM (Pgp efflux substrate) with and without Elacridar in both directions was used.
The sample solution was prepared dissolving test compound in DMSO at the concentration of 10 mM and then diluted in the Assay Buffer (Hank's Balance Salt Solution) warmed at 37° C. before use, to give the 10 μM Compound working solution with and without 10 μM Elacridar. These working solutions were added to donor compartment (apical for A>B direction and basolateral for B>A direction) and Assay Buffer (Hank's Balance Salt Solution) to the receiver compartment (basolateral for A>B direction and apical for B>A direction). The plate was incubated at 37° C. for 120 min, all incubation were conducted in triplicates. At the end of incubation, samples from donor and receiver compartments were collected for HPLC-MS/MS analyses.
The permeability coefficients (Papp) in both directions: apical to basolateral (A>B) and basolateral to apical (B>A) with and without PgP inhibitor (Elacridar) was calculated in nm/sec, using the following equation:
[formula] • where: • Cr=measured concentration in the receiver well at the time t (expressed as IS ratio) • Vr=volume of the receiver well (ml) • t=time (sec) • A=membrane surface area (cm^2) • C0=initial donor concentration • Passive Papp is considered Papp A>B with PgP inhibitor Elacridar.
(Caco-2 monolayers are a common model of the intestinal barrier.)

Sequence of BSEP (O95342 whole entry): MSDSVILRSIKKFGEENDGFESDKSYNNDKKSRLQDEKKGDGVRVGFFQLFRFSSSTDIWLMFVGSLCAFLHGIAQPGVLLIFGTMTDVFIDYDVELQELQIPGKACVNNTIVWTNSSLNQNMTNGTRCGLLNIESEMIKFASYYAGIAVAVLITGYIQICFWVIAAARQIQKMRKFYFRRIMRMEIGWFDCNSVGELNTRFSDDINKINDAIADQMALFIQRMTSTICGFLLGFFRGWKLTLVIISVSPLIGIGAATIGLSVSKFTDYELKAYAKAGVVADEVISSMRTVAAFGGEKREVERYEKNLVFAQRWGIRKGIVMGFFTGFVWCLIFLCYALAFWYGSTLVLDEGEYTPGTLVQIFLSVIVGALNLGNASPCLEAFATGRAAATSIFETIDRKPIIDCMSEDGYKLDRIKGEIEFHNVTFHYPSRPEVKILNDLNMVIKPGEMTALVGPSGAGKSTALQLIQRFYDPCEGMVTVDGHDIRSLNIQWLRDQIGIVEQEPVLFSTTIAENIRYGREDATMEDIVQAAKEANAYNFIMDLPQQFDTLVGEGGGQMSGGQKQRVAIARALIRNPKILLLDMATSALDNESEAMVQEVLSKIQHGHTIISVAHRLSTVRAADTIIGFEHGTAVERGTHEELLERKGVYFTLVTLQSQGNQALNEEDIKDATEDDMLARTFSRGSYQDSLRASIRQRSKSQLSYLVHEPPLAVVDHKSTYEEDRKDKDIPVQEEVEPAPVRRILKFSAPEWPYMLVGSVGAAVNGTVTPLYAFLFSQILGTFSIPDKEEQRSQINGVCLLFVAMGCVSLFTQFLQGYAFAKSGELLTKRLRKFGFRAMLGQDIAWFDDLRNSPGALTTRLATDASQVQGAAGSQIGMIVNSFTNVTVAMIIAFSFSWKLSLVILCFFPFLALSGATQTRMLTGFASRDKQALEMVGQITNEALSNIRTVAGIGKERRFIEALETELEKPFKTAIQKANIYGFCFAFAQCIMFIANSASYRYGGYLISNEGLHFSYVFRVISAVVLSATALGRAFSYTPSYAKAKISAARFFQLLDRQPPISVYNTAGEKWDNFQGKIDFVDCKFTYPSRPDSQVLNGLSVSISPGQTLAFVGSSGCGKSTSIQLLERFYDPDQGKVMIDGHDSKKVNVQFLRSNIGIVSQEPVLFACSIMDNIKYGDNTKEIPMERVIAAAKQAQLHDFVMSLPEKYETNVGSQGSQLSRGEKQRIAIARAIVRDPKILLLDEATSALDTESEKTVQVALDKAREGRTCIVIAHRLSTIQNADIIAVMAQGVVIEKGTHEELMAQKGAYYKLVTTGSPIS

Compound `Cc1nc(-c2onc(C)c2NC(=O)O[C@H](C)c2ccccc2)ccc1NC(=O)[C@H]1CCCC[C@@H]1C(=O)O` [Example 27, (1S,2S)-2-((2-methyl-6-(3-methyl-4-((((R)-1-phenylethoxy)carbonyl)amino)isoxazol-5-yl)pyridin-3-yl)carbamoy1)cyclohexane-1-carboxylic acid] displayed an inhibition at 10 min, 50 μM against BSEP of no more than 50%. Further, the Papp at 120 min, 10 µM in series [1] was no less than 1.5 ×10⁻⁶ cm/s.
The like results for `Cc1nc(-c2onc(C)c2NC(=O)O[C@H](C)c2ccccc2Cl)ccc1NC(=O)C1CCCCC1C(=O)O` (single isomer, unassigned) [Example 13] were, in that order, no more than 50% and no less than 1.5 ×10⁻⁶ cm/s.
`Cc1nc(-c2onc(C)c2NC(=O)O[C@H](C)c2ccccc2Cl)ccc1NC(=O)[C@@H]1CCCC[C@H]1C(=O)O` [Example 12, (1R,2R)-2-((6-(4-((((R)-1-(2-chlorophenyl)ethoxy)carbonyl)amino)-3-methylisoxazol-5-yl)-2-methylpyridin-3-yl)carbamoyl)cyclohexane-1-carboxylic acid]: the inhibition at 10 min, 50 μM against BSEP was no more than 50%. The Papp at 120 min, 10 µM in series [1] is no less than 1.5 ×10⁻⁶ cm/s.
For `Cc1noc(-c2ccc(NC(=O)[C@H]3CCCC[C@@H]3C(=O)O)cc2)c1NC(=O)O[C@H](C)c1ccccc1Cl` [comparative Example A, (1S,2S)-2-({4-[3-methyl-4-({[(1R)-1-(2-chlorophenyl)ethoxy]carbonyl}amino)-1,2-oxazol-5-yl]phenyl}carbamoyl)cyclohexane-1-carboxylic acid, reference compound], the inhibition at 10 min, 50 μM against BSEP is greater than 70%. In addition, the Papp at 120 min, 10 µM in series [1] is less than 1.5 ×10⁻⁶ cm/s.
For `Cc1nc(-c2cnn(C)c2NC(=O)O[C@H](C)c2ccccc2Cl)ccc1NC(=O)[C@H]1CCCC[C@@H]1C(=O)O` (stereo in doubt) [Example 2, (1S,2S)-2-((6-(5-((((R)-1-(2-chlorophenyl)ethoxy)carbony1)amino)-1-methyl-1H-pyrazol-4-yl)-2-methylpyridin-3-y1)carbamoyl)cyclohexane-1-carboxylic acid] the same measures were no more than 50% and no less than 1.5 ×10⁻⁶ cm/s.
In turn, `Cc1noc(-c2ccc(NC(=O)[C@H]3CCCC[C@@H]3C(=O)O)cn2)c1NC(=O)O[C@H](C)c1ccccc1Cl` [Example 16, (1S,2S)-2-((6-(4-((((R)-1-(2-chlorophenyl)ethoxy)carbonyl)amino)-3-methylisoxazol-5-yl)pyridin-3-yl)carbamoyl)cyclohexane-1-carboxylic acid] returned an inhibition at 10 min, 50 μM at BSEP of no more than 50%. Further, the Papp at 120 min, 10 µM in series [1] is no less than 1.5 ×10⁻⁶ cm/s.
The like results for `Cc1ccccc1[C@@H](C)OC(=O)Nc1c(C)noc1-c1ccc(NC(=O)[C@H]2CCCC[C@@H]2C(=O)O)c(C)n1` [Example 32, (1S,2S)-2-((2-methyl-6-(3-methyl-4-((((R)-1-(o-toly1)ethoxy)carbonyl)amino)isoxazol-5-yl)pyridin-3-yl)carbamoyl)cyclohexane-1-carboxylic acid] were, in that order, no more than 50% and no less than 1.5 ×10⁻⁶ cm/s.
In turn, `Cc1nc(-c2onc(C)c2NC(=O)O[C@H](C)c2ccccc2)ccc1NC(=O)C1CCCCC1C(=O)O` (stereo partly drawn) [Example 39, Cis-2-((2-methyl-6-(3-methyl-4-((((R)-1-phenylethoxy)carbonyl)amino)isoxazol-5-yl)pyridin-3-yl)carbamoyl)cyclohexane-1-carboxylic acid] displayed an inhibition at 10 min, 50 μM at BSEP of no more than 50%. Moreover, the Papp at 120 min, 10 µM in series [1] is no less than 1.5 ×10⁻⁶ cm/s.
Consider `Cc1nc(-c2onc(C)c2NC(=O)O[C@H](C)c2ccccc2Cl)ccc1NC(=O)[C@H]1CCCC[C@@H]1C(=O)O` [Example 1, (1S,2S)-2-((6-(4-((((R)-1-(2-chlorophenyl)ethoxy)carbonyl)amino)-3-methylisoxazol-5-yl)-2-methylpyridin-3-yl)carbamoyl)cyclohexane-1-carboxylic acid], for which, at BSEP, the inhibition at 10 min, 50 μM was no more than 50%. For the same compound, the Papp at 120 min, 10 µM in series [1] is no less than 1.5 ×10⁻⁶ cm/s.

(Values after patent US12454530B2, “Amido cyclohexane acid derivatives as LPA receptor inhibitors” (CHIESI FARMACEUTICI S.P.A., priority 2020, dated 2025).)
